According to patent publication US11020367B2, “Method for preparing medicine with dicaffeoylquinic acid for treating gout” (Huazhong Agricultural University, priority 2019, dated 2021):
Marks after values point to notes of the source that are not given here.

Legend:
XOD (xanthine oxidase) = XOD (xanthine oxidase) (Homo sapiens, UniProt P47989); test: Inhibition of XOD enzyme activity (absorbance at 295 nm, xanthine substrate); assay type: biochemical; conditions: XOD 0.02 U/mL, xanthine 1 mmol/L, 37° C.; read-out: IC50 in inhibiting XOD
Protocol: Forty μL of xanthine solution (1 mmol/L) was added with a spray gun to measure absorbance every 20 s for 15 times.

THP-1 cells = test: IL-1β secretion in THP-1 cells stimulated by lipopolysaccharide and sodium urate (gout inflammation model, ELISA); assay type: cell-based; conditions: 100 μmol/L compound pre-incubated 12 h, then lipopolysaccharide 1 μg/mL 2 h and sodium urate 200 μg/mL 4 h; PMA-differentiated THP-1; model group 8747.09 ± 975.97, control group 214.83 ± 11.92
Protocol: THP-1 suspension cells were inoculated into a 24-well plate. When the density reached 80%, a phorbol ester (PMA) solution with a final concentration of 100 ng/mL was added. After 12 hours of PMA treatment, THP-1 cells differentiated into adherent macrophages. Culture medium was aspirated before washing the cells with PBS, completely replacing the culture medium to culture for 12 h before carrying out a dosing treatment. One hundred μmol/L of the above identified monomer compounds were pre-incubated for 12 h, then lipopolysaccharide with a final concentration of 1 μg/mL was added and acted for 2 h, and finally a sodium urate solution with a final concentration of 200 μg/mL was added and acted for 4 h. […] The model group was pre-incubated without drugs, and cells were stimulated with lipopolysaccharide and sodium urate. Finally, the cell supernatant was collected, centrifuged, and IL-1β content in the supernatant was measured by using an ELISA kit.

Chain of XOD (xanthine oxidase) (P47989 whole entry, species assumed): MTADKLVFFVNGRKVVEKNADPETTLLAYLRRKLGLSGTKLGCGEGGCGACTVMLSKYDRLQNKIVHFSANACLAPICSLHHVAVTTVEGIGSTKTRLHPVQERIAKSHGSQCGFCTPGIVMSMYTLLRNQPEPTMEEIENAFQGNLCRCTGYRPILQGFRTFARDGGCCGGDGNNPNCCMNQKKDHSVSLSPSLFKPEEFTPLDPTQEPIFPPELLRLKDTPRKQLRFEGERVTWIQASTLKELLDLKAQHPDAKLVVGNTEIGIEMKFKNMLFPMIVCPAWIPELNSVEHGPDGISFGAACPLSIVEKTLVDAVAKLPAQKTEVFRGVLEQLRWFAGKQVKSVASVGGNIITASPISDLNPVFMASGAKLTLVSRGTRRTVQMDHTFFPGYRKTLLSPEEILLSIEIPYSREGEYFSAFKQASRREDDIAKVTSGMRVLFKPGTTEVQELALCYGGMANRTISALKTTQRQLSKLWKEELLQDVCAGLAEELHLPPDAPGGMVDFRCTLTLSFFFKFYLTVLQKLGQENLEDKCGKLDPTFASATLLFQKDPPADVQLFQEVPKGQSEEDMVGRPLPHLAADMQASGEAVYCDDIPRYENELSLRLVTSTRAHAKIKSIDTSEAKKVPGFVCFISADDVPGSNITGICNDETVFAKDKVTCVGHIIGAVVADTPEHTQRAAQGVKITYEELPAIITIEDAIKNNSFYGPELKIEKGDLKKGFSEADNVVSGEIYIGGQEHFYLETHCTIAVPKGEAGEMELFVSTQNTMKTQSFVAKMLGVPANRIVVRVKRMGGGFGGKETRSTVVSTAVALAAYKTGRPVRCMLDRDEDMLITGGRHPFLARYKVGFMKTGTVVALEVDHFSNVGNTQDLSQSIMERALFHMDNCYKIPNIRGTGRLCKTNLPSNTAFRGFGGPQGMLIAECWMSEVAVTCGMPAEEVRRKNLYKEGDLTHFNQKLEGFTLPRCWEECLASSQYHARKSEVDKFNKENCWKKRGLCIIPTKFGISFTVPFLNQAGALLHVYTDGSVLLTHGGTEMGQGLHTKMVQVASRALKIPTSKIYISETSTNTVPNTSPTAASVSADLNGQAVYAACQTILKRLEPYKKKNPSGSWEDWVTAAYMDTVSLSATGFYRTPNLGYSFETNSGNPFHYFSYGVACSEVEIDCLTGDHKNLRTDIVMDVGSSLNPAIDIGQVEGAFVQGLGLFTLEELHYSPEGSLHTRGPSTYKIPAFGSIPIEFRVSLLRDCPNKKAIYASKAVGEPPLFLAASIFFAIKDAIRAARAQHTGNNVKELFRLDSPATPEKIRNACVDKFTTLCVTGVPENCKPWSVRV

Structure (SMILES)	IC50 (XOD (xanthine oxidase)) [µM]	IL-1β in cell supernatant (THP-1 cells)
O=C(C=Cc1ccc(O)c(O)c1)OC1C(O)CC(OC(=O)C=Cc2ccc(O)c(O)c2)(C(=O)O)CC1O (stereo not shown) [1,4-diCQA, 1,4-dicaffeoylquinic acid]	7.36 ± 0.63	4647.67 ± 607.03^bc pg/mL
O=C(C=Cc1ccc(O)c(O)c1)OC1CC(OC(=O)C=Cc2ccc(O)c(O)c2)(C(=O)O)CC(O)C1O (stereo not shown) [1,5-diCQA, 1,5-dicaffeoylquinic acid]	122 ± 2.56	4176.74 ± 1214.41^b pg/mL
O=C(C=Cc1ccc(O)c(O)c1)OC1CC(O)(C(=O)O)CC(O)C1OC(=O)C=Cc1ccc(O)c(O)c1 (stereo not shown) [3,4-diCQA, 3,4-dicaffeoylquinic acid]	260 ± 18.4	7088.57 ± 621.91^d pg/mL
O=C(C=Cc1ccc(O)c(O)c1)OC1CC(O)(C(=O)O)CC(OC(=O)C=Cc2ccc(O)c(O)c2)C1O (stereo not shown) [3,5-diCQA, 3,5-dicaffeoylquinic acid]	289 ± 21.8	8850.00 ± 190.20^e pg/mL
O=C(C=Cc1ccc(O)c(O)c1)OC1CC(O)(C(=O)O)CC(O)C1OC(=O)C=Cc1ccc(O)c(O)c1 (stereo not shown) [4,5-diCQA, 4,5-dicaffeoylquinic acid]	233 ± 10.9	5572.09 ± 632.81^c pg/mL
